Data taken from patent US11865110B2, “Thrombin inhibitors, formulations, and uses thereof” (VERSEON INTERNATIONAL CORPORATION, priority 2018, dated 2024).

Tests used:
[1] = Rat pharmacokinetics; assay type: in vivo; conditions: Sprague-Dawley, plasma, SD rats; for C0: C0 by extrapolation
Method: Rat pharmacokinetic data were generated as follows. Compounds were administered intravenously (IV) via tail vein or orally (PO) via gastric gavage to Sprague-Dawley rats fitted with surgically implanted jugular vein catheters (JVC) with nominal weights between 250 and 275 g. Nominal doses were 1 mg/kg and 5 mg/kg for IV and PO, respectively. The doses for IV administration were formulated by dissolving the test compound in a mixture (v/v/v) of 5% N,N-dimethylacetamide (DMA), 15% Kolliphor® (Solutol®) HS15, and 80% sterile water at a dose concentration of 0.25 mg/mL. The doses for PO administration were formulated either as Option A or Option B. Option A was formulated by dissolving the test compound in a mixture (v/v) of 90% Kolliphor® (Solutol®) HS15 and 10% pure ethanol at a dose concentration of 0.25 mg/mL. Option B was formulated by dissolving the test compound in a mixture (v/v) of 20% Labrasol® and 80% Phosphate buffer at pH 6.8.
Animals were housed in standard holding cages with food and water available ad libitum except for animals used for PO dosing which were fasted overnight prior to dosing. One to three rats were used for each experiment. Samples were collected manually via its JVC just before the dosing, as well as at the time points of 5 min, 15 min, 30 min, 60 min, 120 min, 4 h, 8 h, 12 h, and 24 h. Alternatively, samples were collected automatically by transferring the animal to a BASi Culex® automated blood-sampling system for the duration of the experiment. Plasma was obtained by centrifuge and stored frozen until analyzed by LC-MS/MS using an AB Sciex™ QTrap® 5500 coupled to a Shimadzu Nexera X2 fitted with a Luna® Omega 1.6 μm Polar C18 100 Å, 50×2.1 mm, acquired from Phenomenex®. Samples were compared against a standard curve of the test compound at concentrations ranging from 10,000 to 0.3 ng/mL.
(§1) Pharmacokinetic parameters were calculated from mean concentration values using a non-compartmental analysis as described below and as apparent to those of ordinary skill in the art. Concentration at time zero (C0) for the IV was established by the extrapolation of log linear regression using equal weighting on the first three sample time points. Area under the curve (AUC) values were calculated using linear trapezoidal integration.

[2] = Mouse liver microsome stability; assay type: in vitro ADME, mouse (CD-1); conditions: pH 7.4; CD-1 mouse liver microsomes 0.5 mg/mL, NADPH, 37° C.; lower measurable bound 5
Method: (§2) In a 96-well Nunc™ plate, 1.5 μL of a 200 μM solution of the test compound in DMSO were placed in a well. This plate, the “Reaction Plate,” was then warmed to 37° C. in an oven. In a second 96-well Nunc™ plate, the “Quench Plate,” six wells were filled with 180 μL of an internal standard quench solution composed of 100 nM diclofenac in acetonitrile. These six wells correspond to the six time points for data collection: 0, 0.5, 5, 15, 30, and 60 minutes. “Assay Buffer” was prepared by combining 6.96 g potassium phosphate, dibasic, 1.36 g potassium phosphate, monobasic, and 0.30 g of magnesium chloride hexahydrate, then diluting to a final concentration of 500 mL in water and adjusting to pH 7.4, as needed. Assay Buffer was warmed to 37° C., and 12 mL were added to a 10-mg vial of NADPH. Then 300 μL of a 20 mg/mL liver microsome suspension were added to yield a 0.5 mg/mL liver microsome suspension. 300 μL of this liver microsome suspension was then added to the test compound solution in the Reaction Plate and mixed thoroughly with a pipette tip. At each time point, 30 μL of this mixture was transferred to the corresponding well of the Quench Plate. In between time points, the Reaction Plate was kept sealed and warmed in an incubator at 37° C. When the last time point had been completed, the quench plate was centrifuged at 4° C. at 1000×g for 10 minutes. Afterwards, 50 μL of the supernatant of each well was transferred to unique, corresponding wells of a 96-well Costar® plate, the “Analysis Plate,” filled with 150 μL of 50:50 acetonitrile:HyClone™ water. The Analysis Plate was then sealed with a pre-slit plate seal before analysis via an appropriate LCMS method with a 10 μL injection. The abstracted AUC data were then automatically plotted to calculate intrinsic clearance in μL/min/mg. This experiment was run alongside a positive and negative control. Due to the parameters of this procedure, one of skill in the art will appreciate that this assay has a lower measurable bound of 5 μL/min/mg; therefore, certain compounds have their clearances labeled as ≤5 μL/min/mg.

[3] = Rat liver microsome stability; assay type: in vitro ADME; conditions: Sprague-Dawley, pH 7.4; SD rat liver microsomes 0.5 mg/mL, NADPH, 37° C.; lower measurable bound 5
Method: as §2

[4] = Mouse pharmacokinetics; assay type: in vivo; conditions: plasma, male CD-1 mice; for C0: C0 by extrapolation
Method: Mouse pharmacokinetic data were generated as follows. Compounds were administered intravenously (IV) as a single dose via tail vein or orally (PO) as a single dose via gastric gavage to male CD-1 mice with weights between 18 and 25 g. Nominal doses were 1 mg/kg and 5 mg/kg for IV and PO administration, respectively. The doses for IV were formulated by dissolving the test compound in a mixture (v/v/v) of 5% N,N-dimethylacetamide (DMA), 15% Kolliphor® (Solutol®) HS15, and 80% sterile water at a dose concentration of 0.25 mg/mL. Doses for PO were formulated by dissolving the test compound in a mixture (v/v) of 90% Kolliphor® (Solutol®) HS15 and 10% pure ethanol at a dose concentration of 0.25 mg/mL.
Animals were housed in standard holding cages with food and water available ad libitum except for those used for PO dosing, which were fasted overnight prior to dosing. Prior to dosing and at each time point following dosing (5 min (IV only), 15 min, 30 min, 60 min, 120 min, 4 h, 8 h, 12 h, and 24 h), two animals were sacrificed and blood samples were taken in triplicate via cardiac puncture. Plasma was obtained by centrifuge and stored frozen until analyzed by LC-MS/MS using an AB Sciex™ QTrap® 5500 coupled to a Shimadzu Nexera X2 fitted with a Luna® Omega 1.6 μm Polar C18 100 Å, 50×2.1 mm, acquired from Phenomenex®. Samples were compared against a standard curve of the test compound at concentrations ranging from 10,000 to 0.3 ng/mL.
as §1, with “parameters are” for “parameters were”, “of log-linear” for “of log linear”

[5] = PO 5 mg/kg, Formulation B (20% Labrasol, 80% phosphate buffer pH 6.8)
[6] = PO 5 mg/kg, Formulation B (20% Labrasol, 80% phosphate buffer pH 6.8), read-out: PO AUC
[7] = PO 5 mg/kg, Formulation A (90% Kolliphor HS15, 10% ethanol)
[8] = PO 5 mg/kg, Formulation A (90% Kolliphor HS15, 10% ethanol), read-out: PO AUC
[9] = IV single dose 1 mg/kg, read-out: IV AUC
[10] = PO single dose 5 mg/kg, read-out: PO AUC

Compound | C0 ([1]; IV 1 mg/kg) [ng/mL] | AUC ([1]; IV 1 mg/kg, read-out: IV AUC) [ng·h/mL] | Cmax [1, 5] [ng/mL] | AUC [1, 6] [ng·h/mL] | microsomal CLint at 1 µM [2] [µL/min/mg] | microsomal CLint at 1 µM [3] [µL/min/mg] | Cmax [1, 7] [ng/mL] | AUC [1, 8] [ng·h/mL] | C0 ([4]; IV single dose 1 mg/kg) [ng/mL] | AUC [4, 9] [ng·h/mL] | Cmax ([4]; PO single dose 5 mg/kg) [ng/mL] | AUC [4, 10] [ng·h/mL]
O=C(O)CCn1cccc(-c2cc(NCc3ccc(Cl)s3)n(C(=O)c3ccoc3)n2)c1=O [Compound 12, 3-[3-(5-{[(5-chlorothiophen-2-yl)methyl]amino}-1-(furan-3-carbonyl)-1H-pyrazol-3-yl)-2-oxo-1,2-dihydropyridin-1-yl]propanoic acid] | 4600 | 930 |  |  | ≤ 5 |  | 19 | 28 | 4200 | 1000 |  | 
CC(C)(N)Cn1cccc(-c2cc(NCc3ccc(Cl)s3)n(C(=O)c3ccoc3)n2)c1=O [Compound 9, 1-(2-amino-2-methylpropyl)-3-(5-{[(5-chlorothiophen-2-yl)methyl]amino}-1-(furan-3-carbonyl)-1H-pyrazol-3-yl)-1,2-dihydropyridin-2-one] | 94 | 180 | 5.8 | 73 | 11 | ≤ 5 |  |  |  |  |  | 
O=C(O)Cn1cccc(-c2cc(NCc3ccc(Cl)s3)[nH]n2)c1=O [Compound 3, 2-[3-(5-{[(5-chlorothiophen-2-yl)methyl]amino}-1H-pyrazol-3-yl)-2-oxo-1,2-dihydropyridin-1-yl]acetic acid] |  |  |  |  | ≤ 5 | ≤ 5 |  |  | 7200 | 2200 |  | 
O=C(O)CCn1cccc(-c2cc(NCc3ccc(Cl)s3)[nH]n2)c1=O [Compound 2, 3-[3-(5-{[(5-chlorothiophen-2-yl)methyl]amino}-1H-pyrazol-3-yl)-2-oxo-1,2-dihydropyridin-1-yl]propanoic acid] | 5600 | 760 | 150 | 140 | ≤ 5 | ≤ 5 |  |  | 6300 | 850 | 700 | 1300

Now from value to compound:

C0 ([1]; IV 1 mg/kg) [ng/mL] | AUC ([1]; IV 1 mg/kg, read-out: IV AUC) [ng·h/mL] | Cmax [1, 5] [ng/mL] | AUC [1, 6] [ng·h/mL] | microsomal CLint at 1 µM [2] [µL/min/mg] | microsomal CLint at 1 µM [3] [µL/min/mg] | Cmax [1, 7] [ng/mL] | AUC [1, 8] [ng·h/mL] | C0 ([4]; IV single dose 1 mg/kg) [ng/mL] | AUC [4, 9] [ng·h/mL] | Cmax ([4]; PO single dose 5 mg/kg) [ng/mL] | AUC [4, 10] [ng·h/mL] | Compound
5400 | 3300 | 930 | 2100 | 29 | 10 |  |  |  |  |  |  | CC(C)(C)C(=O)n1nc(-c2cccn(CCCC(=O)O)c2=O)cc1NCc1ccc(Cl)s1 [Compound 5, 4-[3-(5-{[(5-chlorothiophen-2-yl)methyl]amino}-1-(2,2-dimethylpropanoyl)-1H-pyrazol-3-yl)-2-oxo-1,2-dihydropyridin-1-yl]butanoic acid]
6100 | 3200 | 1200 | 2100 | 31 | 14 |  |  | 7400 | 3900 |  |  | CCC(C)(C)C(=O)n1nc(-c2cccn(CCC(=O)O)c2=O)cc1NCc1ccc(Cl)s1 [Compound 11, 3-[3-(5-{[(5-chlorothiophen-2-yl)methyl]amino}-1-(2,2-dimethylbutanoyl)-1H-pyrazol-3-yl)-2-oxo-1,2-dihydropyridin-1-yl]propanoic acid]
 |  | 230 | 120 | 100 |  |  |  | 1700 | 530 |  |  | CC(C)(C)C(=O)n1nc(-c2cccn(CCC(N)=O)c2=O)cc1NCc1ccc(Cl)s1 [Compound 8, 3-[3-(5-{[(5-chlorothiophen-2-yl)methyl]amino}-1-(2,2-dimethylpropanoyl)-1H-pyrazol-3-yl)-2-oxo-1,2-dihydropyridin-1-yl]propanamide]
12000 | 2300 |  |  | ≤ 5 | ≤ 5 | 260 | 2300 | 9500 | 6200 | 1500 | 15000 | CC(C)(C)C(=O)n1nc(-c2cccn(CC(=O)O)c2=O)cc1NCc1ccc(Cl)s1 [Compound 4, 2-[3-(5-{[(5-chlorothiophen-2-yl)methyl]amino}-1-(2,2-dimethylpropanoyl)-1H-pyrazol-3-yl)-2-oxo-1,2-dihydropyridin-1-yl]acetic acid]
6500 | 3000 |  |  | 5 to 11 | ≤ 5 | 240 | 2200 | 6800 | 8200 | 3600 | 31000 | CC(C)(C)C(=O)n1nc(-c2cccn(CCC(=O)O)c2=O)cc1NCc1ccc(Cl)s1 [Compound 1, 3-[3-(5-{[(5-chlorothiophen-2-yl)methyl]amino}-1-(2,2-dimethylpropanoyl)-1H-pyrazol-3-yl)-2-oxo-1,2-dihydropyridin-1-yl]propanoic acid]
